Reference: patent US11197828B2, “Solid oral dosage form of lipophilic compounds” (SOLURAL PHARMA APS, priority 2014, dated 2021)
Marks after values point to notes of the source that are not given here.

Tests used:
[1] = cited from earlier work
[2] = oral 60 mg paclitaxel equivalents/animal, fasted male beagle dogs (N = 4)
Description: (§1) The study was a randomized, balanced, single dose, parallel group study in Beagle dogs comparing pharmacokinetics in fasted state of capsules containing C11-paclitaxel and DHA-paclitaxel, respectively in SEDDS formulation S2 (see Table 1).
(§2) The strength of each capsule was 12.5 mg of paclitaxel equivalents for the C-11 paclitaxel capsule and 10 mg of paclitaxel equivalents for the DHA-paclitaxel. The total oral dosage provided was 75 mg calculated as parent compound for paclitaxel and C11-paclitaxel, respectively and 60 mg calculated as parent compound for DHA-paclitaxel.
(§3) The dogs were deprived of food from late afternoon the day prior dosing. The capsule was put directly on the aditus laryngis of the dog to ensure that the capsule is not chewed but swallowed whole. All dogs received totally 100 ml of water immediately following the dosing.
(§4) Blood samples (approximately ˜0.5 mL) were taken from each animal at each dosing occasion on 10 time points up to 24 hours after dosing including a pre-dose.
(§5) The pharmacokinetic parameters calculated are i.e. total exposure, or area under the concentration-time curve (AUC0-inf, AUC0-t), peak exposure (Cmax), time to peak exposure (Tmax), terminal half-life t1/2 and the conversion rate from prodrug to parent.

in vivo = conditions: male, beagle, dog, blood, po, 75 mg
Description: as §1, §2, §3, §4, §5

[3] = excessive first pass metabolism; cited from earlier work

## CC(=O)O[C@H]1CC[C@@]2(C)C(=CC[C@@H]3[C@@H]2CC[C@]2(C)C(c4cccnc4)=CC[C@@H]32)C1 [Abiraterone acetate]
[1]
  log P: 5.1

## C[C@@H](O)[C@@H]1NC(=O)[C@H](CCCCN)NC(=O)[C@@H](Cc2c[nH]c3ccccc23)NC(=O)[C@H](Cc2ccccc2)NC(=O)[C@@H](NC(=O)[C@H](N)Cc2ccccc2)CSSC[C@@H](C(=O)N[C@H](CO)[C@@H](C)O)NC1=O [Octreotide]
[1]
  log P: around 1

## CC/C=C\C/C=C\C/C=C\C/C=C\C/C=C\C/C=C\CCC(=O)O[C@@H](C(=O)O[C@H]1C[C@@]2(O)[C@@H](OC(=O)c3ccccc3)[C@@H]3[C@]4(OC(C)=O)CO[C@@H]4C[C@H](O)[C@@]3(C)C(=O)[C@H](OC(C)=O)C(=C1C)C2(C)C)[C@@H](NC(=O)c1ccccc1)c1ccccc1 [Paclitaxel-DHA, paclitaxel docosahexaenoate]
[2]; conversion prodrug to parent
  AUC0-t(parent)/AUC0-t(prodrug): 22.3%
[2]
  AUC0-t of paclitaxel (parent): 73.3 ng·h/mL
  AUC0-t of prodrug: 402^e) hr * ng/mL
  AUC0-∞ of paclitaxel (parent): 97.2 ng·h/mL
  AUC0-∞ of prodrug: 643^f) hr * ng/mL
  Cmax of paclitaxel (parent): 10.4 ng/mL
  Cmax of prodrug: 63.8^d) ng/mL
  Tmax of paclitaxel (parent): 2.25 h
  Tmax of prodrug: 4.50 h
  t1/2 of paclitaxel (parent): 11.6 h
  t1/2 of prodrug: 6.33 h

## CC(=O)O[C@H]1C(=O)[C@@]2(C)[C@H]([C@H](OC(=O)c3ccccc3)[C@]3(O)C[C@H](OC(=O)[C@H](O)[C@@H](NC(=O)c4ccccc4)c4ccccc4)C(C)=C1C3(C)C)[C@]1(OC(C)=O)CO[C@@H]1C[C@@H]2O [Paclitaxel]
In vivo
  AUC(0-inf): 973 ng·h/mL
  AUC(0-t): 771 ng·h/mL
  Cmax: 148 ng/mL
  Tmax: 2.5 h
  half-life: 13.7 h

## CCCCCCCCCCC(=O)O[C@H]1CC[C@H]2[C@@H]3CCC4=CC(=O)CC[C@]4(C)[C@H]3CC[C@]12C [Testosterone undecanoate]
[1]
  log P: about 8.7

## CC(C)c1cccc(C(C)C)c1O [propofol, 2,6-diisopropylphenol]
[3]
  oral bioavailability: ≤ 3%
